Tests used:
Experiment in all cases: biochemical
Set-up in all cases: KINOMEscan competition binding, DNA-tagged kinase against immobilised ligand, qPCR read-out
Conditions in all cases: read-out: Percent Control
DDR1 = DDR1 (Homo sapiens, UniProt Q08345)
MAP4K2 = MAP4K2 (Homo sapiens, UniProt Q12851)
ICK = molecular target: T1, ICK (Homo sapiens, UniProt Q9UPZ9)
T1 construct: gene CILK1

BMPR2 = BMPR2 (Homo sapiens, UniProt Q13873)
MARK4 = MARK4 (Homo sapiens, UniProt Q96L34)
CSNK1D = CSNK1D (Homo sapiens, UniProt P48730)
CAMKK2 = CAMKK2 (Homo sapiens, UniProt Q96RR4)
PIK3CA = PIK3CA (Homo sapiens, UniProt P42336)
PAK1 = PAK1 (Homo sapiens, UniProt Q13153)
STK36 = STK36 (Homo sapiens, UniProt Q9NRP7)
CAMKK1 = CAMKK1 (Homo sapiens, UniProt Q8N5S9)
MAP4K5 = MAP4K5 (Homo sapiens, UniProt Q9Y4K4)
MAPKAPK2 = MAPKAPK2 (Homo sapiens, UniProt P49137)
CDKL5 = CDKL5 (Homo sapiens, UniProt O76039)
BRSK1 = BRSK1 (Homo sapiens, UniProt Q8TDC3)
RIOK1 = RIOK1 (Homo sapiens, UniProt Q9BRS2)
MAP3K13 = MAP3K13 (Homo sapiens, UniProt O43283)
CDK18 = CDK18 (Homo sapiens, UniProt Q07002)
RIPK2 = RIPK2 (Homo sapiens, UniProt O43353)
GSG2 = molecular target: T2, GSG2 (Homo sapiens, UniProt Q8TF76)
T2 construct: gene HASPIN

Chain of MAP4K5 (Q9Y4K4 whole entry): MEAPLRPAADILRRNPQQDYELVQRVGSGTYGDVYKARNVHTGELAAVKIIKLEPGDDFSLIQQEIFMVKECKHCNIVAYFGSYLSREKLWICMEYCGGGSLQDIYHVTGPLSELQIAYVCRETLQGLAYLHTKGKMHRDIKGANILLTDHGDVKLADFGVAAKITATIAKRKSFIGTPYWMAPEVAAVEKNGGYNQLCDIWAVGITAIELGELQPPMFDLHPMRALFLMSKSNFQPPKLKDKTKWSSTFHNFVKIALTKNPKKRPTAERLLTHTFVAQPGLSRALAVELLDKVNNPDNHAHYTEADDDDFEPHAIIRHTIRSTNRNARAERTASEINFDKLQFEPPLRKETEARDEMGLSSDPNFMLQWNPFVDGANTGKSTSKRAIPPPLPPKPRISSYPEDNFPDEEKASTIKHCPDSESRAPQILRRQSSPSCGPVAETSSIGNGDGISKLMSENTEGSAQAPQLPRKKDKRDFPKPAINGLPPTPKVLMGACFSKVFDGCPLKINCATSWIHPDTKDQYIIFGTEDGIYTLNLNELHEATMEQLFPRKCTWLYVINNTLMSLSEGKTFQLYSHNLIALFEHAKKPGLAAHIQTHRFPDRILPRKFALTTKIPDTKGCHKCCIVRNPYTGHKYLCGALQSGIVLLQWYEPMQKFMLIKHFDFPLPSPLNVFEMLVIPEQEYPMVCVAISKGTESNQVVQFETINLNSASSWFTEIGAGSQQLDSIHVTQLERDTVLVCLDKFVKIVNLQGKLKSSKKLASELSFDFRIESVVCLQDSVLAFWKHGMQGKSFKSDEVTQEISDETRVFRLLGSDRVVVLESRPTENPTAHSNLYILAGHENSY
Chain of STK36 (Q9NRP7 whole entry): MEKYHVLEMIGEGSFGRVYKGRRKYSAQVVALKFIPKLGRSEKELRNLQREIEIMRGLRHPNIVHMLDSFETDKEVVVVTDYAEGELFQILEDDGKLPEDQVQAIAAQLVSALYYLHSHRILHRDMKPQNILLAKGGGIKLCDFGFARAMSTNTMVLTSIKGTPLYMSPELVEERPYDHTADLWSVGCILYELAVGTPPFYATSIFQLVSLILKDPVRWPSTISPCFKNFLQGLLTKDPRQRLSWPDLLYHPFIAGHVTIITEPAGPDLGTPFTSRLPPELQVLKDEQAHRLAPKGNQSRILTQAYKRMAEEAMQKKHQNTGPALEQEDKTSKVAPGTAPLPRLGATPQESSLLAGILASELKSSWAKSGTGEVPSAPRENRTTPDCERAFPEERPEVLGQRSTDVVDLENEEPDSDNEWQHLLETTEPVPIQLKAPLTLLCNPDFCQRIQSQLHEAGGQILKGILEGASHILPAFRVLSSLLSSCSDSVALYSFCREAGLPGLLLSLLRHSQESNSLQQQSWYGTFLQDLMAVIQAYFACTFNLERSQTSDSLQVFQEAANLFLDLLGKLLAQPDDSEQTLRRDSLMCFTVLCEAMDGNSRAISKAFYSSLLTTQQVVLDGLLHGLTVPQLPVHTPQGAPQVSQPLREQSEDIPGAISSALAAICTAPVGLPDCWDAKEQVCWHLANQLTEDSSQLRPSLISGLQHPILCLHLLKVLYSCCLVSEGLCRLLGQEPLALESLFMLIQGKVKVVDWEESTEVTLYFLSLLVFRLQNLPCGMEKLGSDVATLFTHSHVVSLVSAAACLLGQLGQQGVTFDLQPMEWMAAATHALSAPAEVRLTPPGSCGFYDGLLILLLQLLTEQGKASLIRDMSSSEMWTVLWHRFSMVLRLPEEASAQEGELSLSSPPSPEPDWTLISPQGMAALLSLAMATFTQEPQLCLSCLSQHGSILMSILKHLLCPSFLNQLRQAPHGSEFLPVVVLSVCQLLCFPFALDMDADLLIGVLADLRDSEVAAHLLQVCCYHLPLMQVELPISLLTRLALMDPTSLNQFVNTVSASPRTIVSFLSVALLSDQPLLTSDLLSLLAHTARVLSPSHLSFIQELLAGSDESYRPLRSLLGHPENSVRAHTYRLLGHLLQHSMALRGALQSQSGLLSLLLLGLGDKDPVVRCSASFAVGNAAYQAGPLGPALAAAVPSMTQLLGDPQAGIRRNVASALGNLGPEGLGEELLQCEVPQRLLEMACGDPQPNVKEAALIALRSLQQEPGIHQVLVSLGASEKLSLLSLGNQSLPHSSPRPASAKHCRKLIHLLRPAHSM
Chain of RIPK2 (O43353 whole entry): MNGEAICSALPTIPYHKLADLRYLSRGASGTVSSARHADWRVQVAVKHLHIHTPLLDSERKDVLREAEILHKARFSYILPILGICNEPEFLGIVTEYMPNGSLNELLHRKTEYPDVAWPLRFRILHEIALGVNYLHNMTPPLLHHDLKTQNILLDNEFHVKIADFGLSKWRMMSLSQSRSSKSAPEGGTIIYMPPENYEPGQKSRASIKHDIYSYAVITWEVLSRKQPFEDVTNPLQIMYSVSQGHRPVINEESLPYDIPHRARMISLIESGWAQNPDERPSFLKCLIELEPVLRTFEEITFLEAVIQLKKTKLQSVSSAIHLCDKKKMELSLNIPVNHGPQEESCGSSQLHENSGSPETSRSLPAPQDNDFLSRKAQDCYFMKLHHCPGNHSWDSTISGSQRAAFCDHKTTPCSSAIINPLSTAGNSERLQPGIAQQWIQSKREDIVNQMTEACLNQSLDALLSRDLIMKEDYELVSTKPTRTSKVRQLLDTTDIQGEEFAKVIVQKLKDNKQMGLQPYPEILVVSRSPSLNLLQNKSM
Chain of RIOK1 (Q9BRS2 whole entry): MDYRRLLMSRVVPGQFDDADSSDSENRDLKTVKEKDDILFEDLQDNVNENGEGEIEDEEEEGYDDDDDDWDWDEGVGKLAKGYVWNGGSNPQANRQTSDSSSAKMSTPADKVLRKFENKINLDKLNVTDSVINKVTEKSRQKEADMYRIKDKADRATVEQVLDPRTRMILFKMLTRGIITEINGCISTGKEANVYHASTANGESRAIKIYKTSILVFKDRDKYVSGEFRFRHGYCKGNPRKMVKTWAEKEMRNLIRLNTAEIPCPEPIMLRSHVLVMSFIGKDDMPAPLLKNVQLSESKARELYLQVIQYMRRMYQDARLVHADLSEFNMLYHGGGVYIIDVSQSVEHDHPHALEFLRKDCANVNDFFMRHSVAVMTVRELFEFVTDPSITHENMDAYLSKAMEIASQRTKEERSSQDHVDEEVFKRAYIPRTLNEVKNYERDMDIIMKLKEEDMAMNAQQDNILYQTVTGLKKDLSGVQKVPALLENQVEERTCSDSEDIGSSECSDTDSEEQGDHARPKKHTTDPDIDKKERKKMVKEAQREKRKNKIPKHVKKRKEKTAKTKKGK
Chain of CAMKK1 (Q8N5S9 whole entry): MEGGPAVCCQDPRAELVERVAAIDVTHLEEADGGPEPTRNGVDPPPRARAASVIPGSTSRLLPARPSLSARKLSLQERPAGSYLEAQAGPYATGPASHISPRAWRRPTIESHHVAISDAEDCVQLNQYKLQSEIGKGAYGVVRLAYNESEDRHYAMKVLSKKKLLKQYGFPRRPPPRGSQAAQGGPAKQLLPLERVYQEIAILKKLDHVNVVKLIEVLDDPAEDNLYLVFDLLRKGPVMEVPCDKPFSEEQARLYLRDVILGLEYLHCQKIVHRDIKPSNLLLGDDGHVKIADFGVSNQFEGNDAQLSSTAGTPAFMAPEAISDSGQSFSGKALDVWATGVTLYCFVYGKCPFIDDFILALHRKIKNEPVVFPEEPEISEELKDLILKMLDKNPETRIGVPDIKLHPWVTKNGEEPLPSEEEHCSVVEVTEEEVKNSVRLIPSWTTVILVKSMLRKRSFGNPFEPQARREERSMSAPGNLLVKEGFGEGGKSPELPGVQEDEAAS
Chain of MAP3K13 (O43283 whole entry): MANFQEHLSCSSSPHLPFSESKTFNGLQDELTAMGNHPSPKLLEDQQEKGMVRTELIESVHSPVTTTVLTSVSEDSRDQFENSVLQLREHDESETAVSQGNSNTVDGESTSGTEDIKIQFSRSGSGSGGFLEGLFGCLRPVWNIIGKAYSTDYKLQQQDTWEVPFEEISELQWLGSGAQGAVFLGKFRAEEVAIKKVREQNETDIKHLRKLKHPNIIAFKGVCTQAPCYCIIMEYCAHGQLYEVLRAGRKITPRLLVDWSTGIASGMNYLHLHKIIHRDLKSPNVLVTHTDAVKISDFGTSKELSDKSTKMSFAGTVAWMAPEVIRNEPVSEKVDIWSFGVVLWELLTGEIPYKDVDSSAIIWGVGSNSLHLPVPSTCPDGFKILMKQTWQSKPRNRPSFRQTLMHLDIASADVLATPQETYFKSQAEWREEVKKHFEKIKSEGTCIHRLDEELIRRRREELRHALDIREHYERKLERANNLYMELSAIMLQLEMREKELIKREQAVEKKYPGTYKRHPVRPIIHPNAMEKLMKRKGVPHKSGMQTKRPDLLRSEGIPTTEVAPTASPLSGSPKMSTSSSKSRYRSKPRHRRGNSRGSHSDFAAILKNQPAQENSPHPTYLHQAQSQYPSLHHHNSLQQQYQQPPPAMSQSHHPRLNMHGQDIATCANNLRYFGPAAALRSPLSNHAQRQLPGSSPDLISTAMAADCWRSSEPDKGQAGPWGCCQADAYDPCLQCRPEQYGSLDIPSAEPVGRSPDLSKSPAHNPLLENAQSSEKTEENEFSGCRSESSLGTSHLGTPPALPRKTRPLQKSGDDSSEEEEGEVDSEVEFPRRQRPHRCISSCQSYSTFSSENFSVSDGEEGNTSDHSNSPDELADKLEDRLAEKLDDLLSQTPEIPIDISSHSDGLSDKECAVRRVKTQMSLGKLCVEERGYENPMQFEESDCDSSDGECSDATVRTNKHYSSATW

Q: Which results are given for `Oc1ccc(C2=Cc3ccc(O)cc3OC2)cc1` [compound 1, idronoxil]?
A: remaining binding at 10 µM (DDR1): 87%; remaining binding at 10 µM (MAP4K2): 26%; remaining binding at 10 µM (ICK): 100%; remaining binding at 10 µM (BMPR2): 99%; remaining binding at 10 µM (MARK4): 97%; remaining binding at 10 µM (CSNK1D): 58%; remaining binding at 10 µM (CAMKK2): 68%; remaining binding at 10 µM (PIK3CA): 89%; remaining binding at 10 µM (PAK1): 60%; remaining binding at 10 µM (STK36): 78%; remaining binding at 10 µM (CAMKK1): 78%; remaining binding at 10 µM (MAP4K5): 70%; remaining binding at 10 µM (MAPKAPK2): 65%; remaining binding at 10 µM (CDKL5): 97%; remaining binding at 10 µM (BRSK1): 76%; remaining binding at 10 µM (RIOK1): 98%; remaining binding at 10 µM (MAP3K13): 84%; remaining binding at 10 µM (CDK18): 71%; remaining binding at 10 µM (RIPK2): 81%; remaining binding at 10 µM (GSG2): 5.3%
